Counter-ions that a name gives are not always drawn.
Columns and labels:
[1] = test system: cGAS activity in THP1 cells (IFNb as marker); test: Cellular assay to measure cGAS activity (IFNb production in PMA-differentiated THP1 cells stimulated by RDG-Adenovirus-GFP); assay type: cell-based, human; details: Homo sapiens, THP-1, THP1 cells, PMA differentiated, RDG-Adenovirus-GFP 1000 MOI, IFNb AlphaLISA, overnight incubation; read-out: IC50 (μM), Cellular assay for Compounds 95-348
Protocol: Cellular assay to measure cGAS activity: Use THP1 cell line from ATCC to determine inhibition of cGAS activity by test compounds in human cells. Plate cells on 96-well plates at 0.2×10^6/well and differentiate with phorbol myristate acetate (PMA) at 37° C./5% CO2. After 24 hours, replace PMA containing media with media lacking PMA and further incubate overnight. Stimulate cells were then by RDG-Adenovirus-GFP (Vector Biolabs #1768) at 1000 MOI for 4 hours prior to the addition of test compounds. After overnight incubation, transfer 10 μL of the media from each well to a new plate for IFNb analysis as a marker for cGAS activity. Measure quantification of IFNb with an IFNb AlphaLISA Detection kit (Perkin Elmer AL3133F) by mixing the acceptor beads with the cell supernatant followed by the addition of the biotinylated antibody and donor beads. Measure the relative fluorescence signal produced from the interaction of the donor and acceptor beads by a PHERAStar AlphaLISA protocol and evaluate the inhibitory effect of a compound by plotting specific inhibition of IFNb production against log concentration of the test compound. Calculate IC50 values using a 4-parameter non-linear logistic equation (y=(S0+((SInf−S0)/(1+((qAC50/x)^nHill))))).

[2] = target: recombinant human cGAS (Homo sapiens (Human), UniProt Q8N884); test: In vitro inhibition assay of cGAS activity (cGAMP production, RapidFire mass spectrometry); assay type: biochemical; details: 10 nM recombinant human cGAS, 60 nM 75-bp dsDNA, ATP, GTP, room temperature 3 hours, read-out: IC50 (μM), In vitro inhibition assay for Compounds 95-348
Method in brief: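 Product cGAMP was quantified by RapidFire MS against a difluoro-cGAMP internal standard after a formic acid quench. The reaction contained 10 nM recombinant full-length human cGAS, 75-bp dsDNA (60 nM), ATP and GTP (50 μM) and ran for 3 h at room temperature. IC50 values came from 4-parameter nonlinear regression.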

Chain of recombinant human cGAS (Q8N884 whole entry): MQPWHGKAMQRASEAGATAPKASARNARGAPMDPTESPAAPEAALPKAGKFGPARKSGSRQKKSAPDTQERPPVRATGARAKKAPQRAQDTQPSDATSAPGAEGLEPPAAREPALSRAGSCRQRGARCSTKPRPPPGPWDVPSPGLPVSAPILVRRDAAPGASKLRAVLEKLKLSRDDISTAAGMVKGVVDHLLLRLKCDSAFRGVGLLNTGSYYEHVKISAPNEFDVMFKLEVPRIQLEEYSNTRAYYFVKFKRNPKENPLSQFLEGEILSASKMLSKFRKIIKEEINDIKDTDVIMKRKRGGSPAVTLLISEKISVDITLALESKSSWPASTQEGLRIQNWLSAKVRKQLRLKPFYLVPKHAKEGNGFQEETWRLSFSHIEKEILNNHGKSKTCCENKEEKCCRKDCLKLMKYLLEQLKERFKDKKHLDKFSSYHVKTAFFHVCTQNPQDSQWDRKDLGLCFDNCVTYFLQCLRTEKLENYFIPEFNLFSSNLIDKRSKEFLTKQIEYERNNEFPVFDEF

IC50 [1] | IC50 [2] | SMILES
1.19 µM | 0.0126 µM | N#CCOc1cc(Cl)c(Cl)c2c1c(-c1cn[nH]c1)c1n2CCN(C(=O)[C@@H]2COCCO2)C1 [Example 285, (S)-2-((6,7-Dichloro-2-(1,4-dioxane-2-carbonyl)-10-(1H-pyrazol-4-yl)-1,2,3,4-tetrahydropyrazino[1,2-a]indol-9-yl)oxy)acetonitrile]
0.35 µM | 0.0348 µM | O=C(Nc1cc(Cl)cc2[nH]cc(-c3cn[nH]c3)c12)C(F)F [Example 219, N-(6-Chloro-3-(1H-pyrazol-4-yl)-1H-indol-4-yl)-2,2-difluoroacetamide]
> 10 µM | 0.0349 µM | CN1CCC(C(=O)N2CCn3c(c(-c4cn[nH]c4)c4ccc(Cl)c(Cl)c43)C2)CC1=O (centres unmarked) [Example 303, 4-(6,7-Dichloro-10-(1H-pyrazol-4-yl)-1,2,3,4-tetrahydropyrazino[1,2-a]indole-2-carbonyl)-1-methylpiperidin-2-one]
2.19 µM | 0.0361 µM | O=C(NC1CCc2c(-c3cn[nH]c3)c3ccc(Cl)c(Cl)c3n2C1)C1(O)CCOCC1 (centres unmarked) [Example 190, N-[3,4-Dichloro-10-(1H-pyrazol-4-yl)-6,7,8,9-tetrahydropyrido[1,2-a]indol-7-yl]-4-hydroxy-tetrahydropyran-4-carboxamide]
> 10 µM | 0.0349 µM | CC(=O)N1CCOC(CCN2CCn3c(c(-c4cn[nH]c4)c4c(OCC#N)cc(Cl)c(Cl)c43)C2=O)C1 (centres unmarked) [Example 151, 2-[[2-[2-(4-Acetylmorpholin-2-yl)ethyl]-6,7-dichloro-1-oxo-10-(1H-pyrazol-4-yl)-3,4-dihydropyrazino[1,2-a]indol-9-yl]oxy]acetonitrile]
6.27 µM | 0.0399 µM | O=C(Cc1cnccn1)N1CCn2c(c(-c3cn[nH]c3)c3ccc(Cl)c(Cl)c32)C1 [Example 267, 1-[6,7-Dichloro-10-(1H-pyrazol-4-yl)-3,4-dihydro-1H-pyrazino[1,2-a]indol-2-yl]-2-pyrazin-2-yl-ethanone]
0.363 µM | 0.0507 µM | Cc1nnc(-c2[nH]c3c(Cl)c(Cl)ccc3c2-c2cn[nH]c2)s1 [Example 158, 2-(6,7-Dichloro-3-(1H-pyrazol-4-yl)-1H-indol-2-yl)-5-methyl-1,3,4-thiadiazole]
3.61 µM | 0.0165 µM | CNC(=O)CCS(=O)(=O)NC1CCc2c(-c3cn[nH]c3)c3ccc(Cl)c(Cl)c3n2C1 (centres unmarked) [Example 118, 3-(N-(3,4-Dichloro-10-(1H-pyrazol-4-yl)-6,7,8,9-tetrahydropyrido[1,2-a]indol-7-yl)sulfamoyl)-N-methylpropanamide]
9.75 µM | 0.0124 µM | N#CCOc1cc(Cl)c(Cl)c2c1c(-c1cn[nH]c1)c1n2CCN(C(=O)CN2CCOC2=O)C1 [Example 284, 2-((6,7-Dichloro-2-(2-(2-oxooxazolidin-3-yl)acetyl)-10-(1H-pyrazol-4-yl)-1,2,3,4-tetrahydropyrazino[1,2-a]indol-9-yl)oxy)acetonitrile]
0.885 µM | 0.0686 µM | NCCn1cc(-n2cc(-c3cn[nH]c3)c3ccc(Cl)c(Cl)c32)nn1 [Example 214, 2-[4-[6,7-Dichloro-3-(1H-pyrazol-4-yl)indol-1-yl]triazol-1-yl]ethanamine hydrochloride]
5.13 µM | 0.077 µM | OCCCn1cc(-n2cc(-c3cn[nH]c3)c3ccc(Cl)c(Cl)c32)nn1 [Example 139, 3-[4-[6,7-Dichloro-3-(1H-pyrazol-4-yl)indol-1-yl]triazol-1-yl]propan-1-ol]
> 10 µM | 0.046 µM | CS(=O)(=O)NC1CCn2c1c(-c1cn[nH]c1)c1ccc(Cl)c(Cl)c12 (centres unmarked) [Example 238, N-(5,6-Dichloro-9-(1H-pyrazol-4-yl)-2,3-dihydro-1H-pyrrolo[1,2-a]indol-1-yl)methanesulfonamide]
0.455 µM | 0.0131 µM | N#CCOc1cc(Cl)c(Cl)c2c1c(-c1cn[nH]c1)c1n2CCN(C(=O)c2cnccn2)C1 [Example 286, 2-((6,7-Dichloro-2-(pyrazine-2-carbonyl)-10-(1H-pyrazol-4-yl)-1,2,3,4-tetrahydropyrazino[1,2-a]indol-9-yl)oxy)acetonitrile]
> 10 µM | 0.0428 µM | O=C(C1COCCOC1)N1CCn2c(c(-c3cn[nH]c3)c3ccc(Cl)c(Cl)c32)C1 [Example 310, (6,7-Dichloro-10-(1H-pyrazol-4-yl)-3,4-dihydropyrazino[1,2-a]indol-2(1H)-yl)(1,4-dioxepan-6-yl)methanone]
2.28 µM | 0.0342 µM | OCCc1cc(-n2cc(-c3cn[nH]c3)c3ccc(Cl)c(Cl)c32)on1 [Example 211, 2-[5-[6,7-Dichloro-3-(1H-pyrazol-4-yl)indol-1-yl]isoxazol-3-yl]ethanol]
> 10 µM | 0.464 µM | OCCC1CCn2c1c(-c1cn[nH]c1)c1ccc(Cl)c(Cl)c12 (single isomer, unassigned; isomer 1) [Example 242, 2-(5,6-Dichloro-9-(1H-pyrazol-4-yl)-2,3-dihydro-1H-pyrrolo[1,2-a]indol-1-yl)ethan-1-ol isomer 1]
1.46 µM | 0.0493 µM | NCCn1cc(-n2cc(-c3cn[nH]c3)c3ccc(Cl)cc32)nn1 [Example 228, 2-[4-[6-Chloro-3-(1H-pyrazol-4-yl)indol-1-yl]triazol-1-yl] ethanamine formic acid salt]
5.87 µM | 0.0385 µM | CC(=O)N1CCn2c(c(-c3cn[nH]c3)c3c(OCC(N)=O)cc(Cl)c(Cl)c32)C1 [Example 268, 2-[[2-Acetyl-6,7-dichloro-10-(1H-pyrazol-4-yl)-3,4-dihydro-1H-pyrazino[1,2-a]indol-9-yl]oxy]acetamide]
> 10 µM | 0.0419 µM | N#CCNc1cc(Cl)c(Cl)c2c1c(-c1cn[nH]c1)c1n2CCN(CCO)C1=O [Example 143, 2-[[6,7-Dichloro-2-(2-hydroxyethyl)-1-oxo-10-(1H-pyrazol-4-yl)-3,4-dihydropyrazino[1,2-a]indol-9-yl]amino]acetonitrile]
0.509 µM | 0.0173 µM | CC(=O)N1CCn2c(c(-c3cn[nH]c3)c3c(NC(=O)C(F)F)cc(Cl)c(Cl)c32)C1 [Example 263, N-[2-Acetyl-6,7-dichloro-10-(1H-pyrazol-4-yl)-3,4-dihydro-1H-pyrazino[1,2-a]indol-9-yl]-2,2-difluoro-acetamide]
0.292 µM | 0.0282 µM | OCCCNc1cc(Cl)cc2c1c(-c1cn[nH]c1)cn2-c1cn(CCO)nn1 [Example 200, 3-[[6-Chloro-1-[1-(2-hydroxyethyl)triazol-4-yl]-3-(1H-pyrazol-4-yl)indol-4-yl]amino]propan-1-ol]
2.09 µM | 0.0326 µM | CCNc1cc(Cl)c(Cl)c2c1c(-c1cn[nH]c1)c1n2CCN(C(C)=O)C1 [Example 255, 1-(6,7-dichloro-9-(ethylamino)-10-(1H-pyrazol-4-yl)-3,4-dihydropyrazino[1,2-a]indol-2(1H)-yl)ethan-1-one hydrochloride]
0.872 µM | 0.0087 µM | CC(=O)N1CCn2c(c(-c3cn[nH]c3)c3c(OCC#N)cc(Cl)c(Cl)c32)C1 [Example 280, 2-((2-Acetyl-6,7-dichloro-10-(1H-pyrazol-4-yl)-1,2,3,4-tetrahydropyrazino[1,2-a]indol-9-yl)oxy)acetonitrile]
5.23 µM | 0.0217 µM | CC(=O)NC1CCCn2c1c(-c1cn[nH]c1)c1ccc(Cl)c(Cl)c12 (centres unmarked) [Example 116, N-(3,4-Dichloro-10-(1H-pyrazol-4-yl)-6,7,8,9-tetrahydropyrido[1,2-a]indol-9-yl)acetamide]
1.38 µM | 0.0165 µM | OC[C@@H]1C[C@@H]1Oc1cc(Cl)c(Cl)c2[nH]cc(-c3cn[nH]c3)c12 (racemic) [Example 137, Cis-[2-[[6,7-Dichloro-3-(1H-pyrazol-4-yl)-1H-indol-4-yl]oxy]cyclopropyl]methanol hydrochloride]
3.2 µM | 0.0812 µM | O=C(NCc1[nH]c2c(Cl)c(Cl)ccc2c1-c1cn[nH]c1)C1(O)COC1 [Example 223, N-[[6,7-Dichloro-3-(1H-pyrazol-4-yl)-1H-indol-2-yl]methyl]-3-hydroxy-oxetane-3-carboxamide]
> 10 µM | 0.0757 µM | O=C(O)[C@@H]1CCCN1C(=O)c1[nH]c2c(Cl)c(Cl)ccc2c1-c1cn[nH]c1 [Example 258, (2 S)-1-[6,7-Dichloro-3-(1H-pyrazol-4-yl)-1H-indole-2-carbonyl]pyrrolidine-2-carb oxylic acid]
> 10 µM | 0.051 µM | O=C(Cn1cnnc1)NCc1[nH]c2c(Cl)c(Cl)ccc2c1-c1cn[nH]c1 [Example 103, N-((6,7-Dichloro-3-(1H-pyrazol-4-yl)-1H-indol-2-yl)methyl)-2-(4H-1,2,4-triazol-4-yl)acetamide]
